Experimental findings from paper PMC3867817 (Molecular cell, 2013) are described below.

This test has as its target RagB-RagC heterodimer (RagB monitored) (Homo sapiens, UniProt Q5VZM2). The test is described as follows: GDP dissociation assay. Conditions: GDP on wild-type RagB with Rag^X partner; not altered by FLCN-FNIP. It is filed as binding.

Chain of RagB-RagC heterodimer (RagB monitored) (Q5VZM2 whole entry): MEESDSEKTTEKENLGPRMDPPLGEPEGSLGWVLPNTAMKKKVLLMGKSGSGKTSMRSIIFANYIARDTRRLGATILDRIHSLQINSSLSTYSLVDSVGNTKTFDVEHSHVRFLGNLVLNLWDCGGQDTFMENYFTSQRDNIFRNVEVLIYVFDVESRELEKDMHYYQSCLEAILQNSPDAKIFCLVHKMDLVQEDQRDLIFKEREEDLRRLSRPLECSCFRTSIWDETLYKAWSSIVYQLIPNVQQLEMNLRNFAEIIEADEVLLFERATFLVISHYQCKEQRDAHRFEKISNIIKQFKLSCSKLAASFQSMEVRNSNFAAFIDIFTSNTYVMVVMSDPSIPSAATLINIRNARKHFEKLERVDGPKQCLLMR
Chain of RagB-RagC heterodimer (RagB monitored) (Q9HB90 2-399 D181N partner): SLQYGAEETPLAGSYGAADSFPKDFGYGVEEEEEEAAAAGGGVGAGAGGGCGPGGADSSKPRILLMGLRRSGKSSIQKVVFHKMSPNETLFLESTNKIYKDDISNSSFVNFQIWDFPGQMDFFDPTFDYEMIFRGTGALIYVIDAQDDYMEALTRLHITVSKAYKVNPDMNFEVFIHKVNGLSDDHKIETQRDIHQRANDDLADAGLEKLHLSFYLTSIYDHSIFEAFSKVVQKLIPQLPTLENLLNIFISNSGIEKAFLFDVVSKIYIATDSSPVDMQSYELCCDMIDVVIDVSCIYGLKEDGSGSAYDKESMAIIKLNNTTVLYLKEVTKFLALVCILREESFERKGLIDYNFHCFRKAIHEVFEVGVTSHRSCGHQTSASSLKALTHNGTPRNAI

As to `Nc1nc2c(ncn2[C@@H]2O[C@H](COP(=O)(O)OP(=O)(O)O)[C@@H](O)[C@H]2O)c(=O)[nH]1` [GDP], the GDP dissociation assay entry is listed as “did not stimulate or inhibit the dissociation of GDP from RagB or RagC”.
